Assay [1] deals with T1, phyB (Arabidopsis thaliana, UniProt P14713).
T1 construct: full length (1172 aa), strep-tagged from Pichia pastoris GS115 or GFP fusion from Saccharomyces cerevisiae; holoprotein with phycocyanobilin; dimer
T1 sequence (P14713 1-1172): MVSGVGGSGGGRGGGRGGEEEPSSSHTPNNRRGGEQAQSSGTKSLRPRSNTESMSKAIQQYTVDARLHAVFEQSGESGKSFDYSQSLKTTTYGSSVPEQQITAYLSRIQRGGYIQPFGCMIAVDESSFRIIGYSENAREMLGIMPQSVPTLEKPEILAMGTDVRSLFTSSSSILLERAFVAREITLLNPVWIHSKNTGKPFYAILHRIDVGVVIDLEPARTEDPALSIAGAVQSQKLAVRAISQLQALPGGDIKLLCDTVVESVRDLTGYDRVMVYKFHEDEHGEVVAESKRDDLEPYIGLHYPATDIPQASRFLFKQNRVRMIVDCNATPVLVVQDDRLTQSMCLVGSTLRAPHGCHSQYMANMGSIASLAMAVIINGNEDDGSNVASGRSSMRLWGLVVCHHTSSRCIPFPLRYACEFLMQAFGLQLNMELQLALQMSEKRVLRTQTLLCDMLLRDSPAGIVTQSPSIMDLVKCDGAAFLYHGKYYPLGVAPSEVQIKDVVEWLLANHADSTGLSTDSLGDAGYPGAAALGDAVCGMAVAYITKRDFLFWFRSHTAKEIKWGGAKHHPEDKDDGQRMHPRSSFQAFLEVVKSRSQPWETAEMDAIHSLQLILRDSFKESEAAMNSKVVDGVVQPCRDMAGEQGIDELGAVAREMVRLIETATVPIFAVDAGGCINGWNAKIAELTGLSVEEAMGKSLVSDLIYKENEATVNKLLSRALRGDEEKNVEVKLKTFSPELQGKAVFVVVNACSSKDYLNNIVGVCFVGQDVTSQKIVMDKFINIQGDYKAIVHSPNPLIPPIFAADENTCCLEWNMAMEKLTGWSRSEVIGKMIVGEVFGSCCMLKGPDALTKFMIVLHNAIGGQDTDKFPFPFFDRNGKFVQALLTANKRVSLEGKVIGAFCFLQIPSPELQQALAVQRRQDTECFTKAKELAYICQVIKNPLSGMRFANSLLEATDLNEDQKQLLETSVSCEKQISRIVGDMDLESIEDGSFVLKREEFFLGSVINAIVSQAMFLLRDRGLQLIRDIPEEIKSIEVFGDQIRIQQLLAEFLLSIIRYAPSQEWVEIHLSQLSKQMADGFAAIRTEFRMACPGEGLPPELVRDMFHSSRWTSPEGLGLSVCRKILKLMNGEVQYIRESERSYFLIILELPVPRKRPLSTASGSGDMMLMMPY
Briefly: in vitro kinase assay, autoradiogram. The note with it: PIF1 as co-substrate, 10 mM MgCl2, pH 7.5, 28 °C; labelled compound (gamma-32P). It counts as biochemical.

For assay [2], the target named is T2, full-length SPA1 (Arabidopsis thaliana, UniProt Q9SYX2).
T2 construct: full length, strep-tagged (3x Flag also cloned), Pichia pastoris GS115, tags kept
T2 sequence (Q9SYX2 1-1029): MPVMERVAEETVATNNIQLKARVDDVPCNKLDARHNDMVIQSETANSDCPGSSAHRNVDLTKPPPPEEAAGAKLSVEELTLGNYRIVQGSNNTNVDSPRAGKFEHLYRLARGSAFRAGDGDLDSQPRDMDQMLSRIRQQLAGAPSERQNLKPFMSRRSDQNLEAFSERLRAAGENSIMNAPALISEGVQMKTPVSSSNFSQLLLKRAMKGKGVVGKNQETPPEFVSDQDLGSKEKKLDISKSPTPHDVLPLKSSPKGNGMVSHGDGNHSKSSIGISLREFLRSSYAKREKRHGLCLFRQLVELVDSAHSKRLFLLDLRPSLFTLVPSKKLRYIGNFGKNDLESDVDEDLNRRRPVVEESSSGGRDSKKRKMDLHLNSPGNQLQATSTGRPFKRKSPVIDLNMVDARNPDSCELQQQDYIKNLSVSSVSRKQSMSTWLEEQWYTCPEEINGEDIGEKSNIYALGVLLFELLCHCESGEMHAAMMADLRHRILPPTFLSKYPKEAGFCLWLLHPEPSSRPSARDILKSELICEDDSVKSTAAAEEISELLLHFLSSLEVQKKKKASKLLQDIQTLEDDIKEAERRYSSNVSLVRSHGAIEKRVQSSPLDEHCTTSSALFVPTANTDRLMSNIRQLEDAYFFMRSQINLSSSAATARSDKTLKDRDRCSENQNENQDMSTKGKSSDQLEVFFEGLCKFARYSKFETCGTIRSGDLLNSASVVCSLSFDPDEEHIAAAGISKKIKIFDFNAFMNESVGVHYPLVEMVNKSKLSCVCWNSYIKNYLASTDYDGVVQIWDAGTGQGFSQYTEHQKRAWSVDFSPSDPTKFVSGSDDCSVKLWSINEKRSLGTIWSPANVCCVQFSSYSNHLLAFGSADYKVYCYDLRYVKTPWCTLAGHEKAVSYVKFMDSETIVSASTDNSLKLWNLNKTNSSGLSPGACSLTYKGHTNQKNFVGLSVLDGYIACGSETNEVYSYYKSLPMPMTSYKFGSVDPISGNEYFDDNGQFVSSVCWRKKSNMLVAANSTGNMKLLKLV
Briefly: in vitro kinase assay, autoradiogram. The note with it: GST-PIF1 as co-substrate, ATP 0.004-2.5 mM, 10 mM MgCl2, pH 7.5, 28 °C; labelled compound (gamma-32P). It counts as biochemical.

Assay [3] addresses T3, Arabidopsis phytochrome B holoprotein purified from Pichia pastoris (Arabidopsis, UniProt P14713 1-1172, phycocyanobilin chromophore assembled).
T3 construct: phytochrome B (phyB), Arabidopsis; also called phyB; Pfr form of phyB; source: Pichia pastoris GS115, purified (ammonium sulfate, Strep-Tactin Sepharose)
T3 sequence (looked up): T1 sequence (P14713 1-1172)
Briefly: pull-down; tripartite complex: 2 µg GST-PIF1-strep on GST agarose beads, 1-2 µg purified phyB from Pichia pastoris, with E. coli lysate holding MBP-SPA1; anti-strep blot. The note with it: both partners purified.

`Nc1ncnc2c1ncn2[C@@H]1O[C@H](COP(=O)(O)OP(=O)(O)OP(=O)(O)O)[C@@H](O)[C@H]1O` [ATP]: the “in vitro kinase assay, autoradiogram” value is “both SPA1 and phyB independently phosphorylates PIF1 in vitro” in assay [1]; “SPA1 also phosphorylated PIF1 in an ATP concentration- and time-dependent manner” in assay [2].

B1: GST-PIF1-strep (natural protein, Arabidopsis, UniProt Q8GZM7 1-478, looked up)
chain: MHHFVPDFDTDDDYVNNHNSSLNHLPRKSITTMGEDDDLMELLWQNGQVVVQNQRLHTKKPSSSPPKLLPSMDPQQQPSSDQNLFIQEDEMTSWLHYPLRDDDFCSDLLFSAAPTATATATVSQVTAARPPVSSTNESRPPVRNFMNFSRLRGDFNNGRGGESGPLLSKAVVRESTQVSPSATPSAAASESGLTRRTDGTDSSAVAGGGAYNRKGKAVAMTAPAIEITGTSSSVVSKSEIEPEKTNVDDRKRKEREATTTDETESRSEETKQARVSTTSTKRSRAAEVHNLSERKRRDRINERMKALQELIPRCNKSDKASMLDEAIEYMKSLQLQIQMMSMGCGMMPMMYPGMQQYMPHMAMGMGMNQPIPPPSFMPFPNMLAAQRPLPTQTHMAGSGPQYPVHASDPSRVFVPNQQYDPTSGQPQYPAGYTDPYQQFRGLHPTQPPQFQNQATSYPSSSRVSSSKESEDHGNHTTG
notes: source: E. coli BL21(DE3), purified (Strep-Tactin Sepharose); not shown: GST, N-terminal, kept; Strep tag, C-terminal, kept
B1: in assay [3], the binding result is reported as “binds”.

Values taken from article PMC6746701, “A phyB-PIF1-SPA1 kinase regulatory complex promotes photomorphogenesis in Arabidopsis” (Nature Communications, 2019).
